ChEMBL document CHEMBL3991601, “The target landscape of clinical kinase drugs” (Science, 2017)
Structures can show the parent of a compound that is named as a salt. The source made the active and inactive calls. For most assays here, no stated cut-off is given here; in the data, actives have a measured Kd and inactives only a lower limit.

What was measured:
[1] = target: Cyclin-dependent kinase 12 (Homo sapiens, UniProt Q9NYV4)
[2] = target: T1, Delta(24)-sterol reductase (Homo sapiens, UniProt Q15392)
T1 sequence (Q15392 whole entry): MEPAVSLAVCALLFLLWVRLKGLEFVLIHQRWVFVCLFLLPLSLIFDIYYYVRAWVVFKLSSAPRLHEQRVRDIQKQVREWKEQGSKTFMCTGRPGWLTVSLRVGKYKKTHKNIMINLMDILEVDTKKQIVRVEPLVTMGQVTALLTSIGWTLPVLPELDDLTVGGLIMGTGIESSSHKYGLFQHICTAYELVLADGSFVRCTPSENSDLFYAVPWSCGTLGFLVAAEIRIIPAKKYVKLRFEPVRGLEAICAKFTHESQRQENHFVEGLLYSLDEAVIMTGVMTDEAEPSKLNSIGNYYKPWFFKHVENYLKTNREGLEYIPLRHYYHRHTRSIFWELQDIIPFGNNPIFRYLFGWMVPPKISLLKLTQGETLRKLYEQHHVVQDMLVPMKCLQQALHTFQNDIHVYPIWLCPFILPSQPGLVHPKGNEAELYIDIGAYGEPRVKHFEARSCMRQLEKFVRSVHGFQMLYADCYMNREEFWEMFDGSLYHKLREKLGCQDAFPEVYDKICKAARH

[3] = target: cAMP-dependent protein kinase catalytic subunit alpha (Homo sapiens, UniProt P17612)
[4] = target: Rho-associated protein kinase 1 (Homo sapiens, UniProt Q13464)
[5] = target: Serine/threonine-protein kinase SIK3 (Homo sapiens, UniProt Q9Y2K2)
[6] = target: DNA topoisomerase 2-alpha (Homo sapiens, UniProt P11388)
DNA topoisomerase 2-alpha, sequence (P11388 whole entry): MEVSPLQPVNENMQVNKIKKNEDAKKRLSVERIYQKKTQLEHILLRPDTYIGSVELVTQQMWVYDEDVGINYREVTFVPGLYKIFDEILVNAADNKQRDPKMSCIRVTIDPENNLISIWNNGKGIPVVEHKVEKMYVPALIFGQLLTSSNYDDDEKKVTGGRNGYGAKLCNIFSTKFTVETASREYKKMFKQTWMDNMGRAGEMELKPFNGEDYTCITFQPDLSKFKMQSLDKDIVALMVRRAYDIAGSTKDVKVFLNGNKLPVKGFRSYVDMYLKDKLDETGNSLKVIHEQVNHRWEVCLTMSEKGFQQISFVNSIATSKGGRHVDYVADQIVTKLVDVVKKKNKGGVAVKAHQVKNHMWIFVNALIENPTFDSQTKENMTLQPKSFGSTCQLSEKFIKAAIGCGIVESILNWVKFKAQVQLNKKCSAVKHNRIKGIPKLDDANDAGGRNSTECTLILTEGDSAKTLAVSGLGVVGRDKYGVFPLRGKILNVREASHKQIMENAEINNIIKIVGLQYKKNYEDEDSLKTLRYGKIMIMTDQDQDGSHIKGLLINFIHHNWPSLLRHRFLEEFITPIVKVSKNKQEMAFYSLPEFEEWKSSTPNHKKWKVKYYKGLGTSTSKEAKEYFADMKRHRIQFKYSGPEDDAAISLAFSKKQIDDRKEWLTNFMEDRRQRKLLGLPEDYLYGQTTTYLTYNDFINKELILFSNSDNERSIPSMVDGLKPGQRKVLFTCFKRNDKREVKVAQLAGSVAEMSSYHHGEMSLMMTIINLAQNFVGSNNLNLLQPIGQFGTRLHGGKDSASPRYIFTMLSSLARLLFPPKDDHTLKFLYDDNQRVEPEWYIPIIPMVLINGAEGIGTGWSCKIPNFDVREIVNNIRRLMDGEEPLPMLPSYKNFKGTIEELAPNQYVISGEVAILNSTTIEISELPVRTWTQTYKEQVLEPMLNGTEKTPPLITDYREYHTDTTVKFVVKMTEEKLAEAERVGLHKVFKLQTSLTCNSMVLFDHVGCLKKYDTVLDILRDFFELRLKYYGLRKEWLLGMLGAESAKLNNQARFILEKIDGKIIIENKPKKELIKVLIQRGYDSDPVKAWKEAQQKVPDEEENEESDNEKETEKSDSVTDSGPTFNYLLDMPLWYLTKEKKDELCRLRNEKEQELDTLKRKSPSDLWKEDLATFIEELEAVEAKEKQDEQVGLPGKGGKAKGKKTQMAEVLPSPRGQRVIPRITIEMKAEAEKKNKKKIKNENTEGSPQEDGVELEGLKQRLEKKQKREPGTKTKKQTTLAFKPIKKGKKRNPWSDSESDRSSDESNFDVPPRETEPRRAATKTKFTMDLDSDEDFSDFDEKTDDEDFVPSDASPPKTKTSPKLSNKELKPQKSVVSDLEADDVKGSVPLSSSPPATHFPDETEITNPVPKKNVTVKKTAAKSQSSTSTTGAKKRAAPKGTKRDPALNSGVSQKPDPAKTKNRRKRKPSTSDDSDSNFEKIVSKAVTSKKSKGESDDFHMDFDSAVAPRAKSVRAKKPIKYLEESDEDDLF

[7] = target: Cyclin-dependent kinase 13 (Homo sapiens, UniProt Q14004)
Cyclin-dependent kinase 13, sequence (Q14004 whole entry): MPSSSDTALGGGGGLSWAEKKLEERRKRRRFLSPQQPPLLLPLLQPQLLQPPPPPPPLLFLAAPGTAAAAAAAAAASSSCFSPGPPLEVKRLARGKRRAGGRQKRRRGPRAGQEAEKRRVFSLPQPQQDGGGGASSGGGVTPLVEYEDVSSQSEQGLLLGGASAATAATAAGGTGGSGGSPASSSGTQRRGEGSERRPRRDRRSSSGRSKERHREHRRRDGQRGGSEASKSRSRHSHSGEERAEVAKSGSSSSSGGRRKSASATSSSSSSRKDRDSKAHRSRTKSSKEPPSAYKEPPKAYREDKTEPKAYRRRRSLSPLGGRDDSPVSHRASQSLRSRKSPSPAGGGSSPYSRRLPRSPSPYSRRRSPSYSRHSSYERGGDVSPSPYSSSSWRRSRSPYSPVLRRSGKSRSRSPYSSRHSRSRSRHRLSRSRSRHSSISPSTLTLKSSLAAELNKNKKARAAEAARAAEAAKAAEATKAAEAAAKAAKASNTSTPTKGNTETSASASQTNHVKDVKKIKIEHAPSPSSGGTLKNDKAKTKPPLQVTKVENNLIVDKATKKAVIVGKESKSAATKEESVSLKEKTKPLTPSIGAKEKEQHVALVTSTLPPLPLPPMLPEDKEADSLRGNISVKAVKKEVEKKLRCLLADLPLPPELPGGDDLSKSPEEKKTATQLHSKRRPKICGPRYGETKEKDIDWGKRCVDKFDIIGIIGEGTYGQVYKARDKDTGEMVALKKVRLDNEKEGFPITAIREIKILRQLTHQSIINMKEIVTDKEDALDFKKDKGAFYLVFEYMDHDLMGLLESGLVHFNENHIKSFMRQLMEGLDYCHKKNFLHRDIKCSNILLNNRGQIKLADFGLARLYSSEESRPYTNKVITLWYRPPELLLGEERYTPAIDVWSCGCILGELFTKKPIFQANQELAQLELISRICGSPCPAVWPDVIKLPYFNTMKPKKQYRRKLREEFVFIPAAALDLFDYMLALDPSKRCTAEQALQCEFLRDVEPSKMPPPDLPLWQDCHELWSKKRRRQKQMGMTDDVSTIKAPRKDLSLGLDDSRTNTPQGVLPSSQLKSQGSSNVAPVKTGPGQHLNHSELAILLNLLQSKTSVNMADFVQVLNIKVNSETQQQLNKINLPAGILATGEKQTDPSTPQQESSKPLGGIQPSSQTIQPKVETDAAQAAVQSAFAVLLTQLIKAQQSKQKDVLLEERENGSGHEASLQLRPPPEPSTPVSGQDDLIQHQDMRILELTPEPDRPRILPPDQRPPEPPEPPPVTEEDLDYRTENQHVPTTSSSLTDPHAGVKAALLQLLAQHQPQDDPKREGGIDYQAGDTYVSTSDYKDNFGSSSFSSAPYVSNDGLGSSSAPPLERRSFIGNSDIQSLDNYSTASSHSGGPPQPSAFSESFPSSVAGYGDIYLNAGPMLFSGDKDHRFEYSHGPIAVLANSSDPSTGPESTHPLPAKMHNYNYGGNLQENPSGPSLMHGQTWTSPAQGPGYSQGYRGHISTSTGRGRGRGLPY

[8] = target: T2, Cyclin-G-associated kinase (Homo sapiens, UniProt O14976)
T2 sequence (O14976 whole entry): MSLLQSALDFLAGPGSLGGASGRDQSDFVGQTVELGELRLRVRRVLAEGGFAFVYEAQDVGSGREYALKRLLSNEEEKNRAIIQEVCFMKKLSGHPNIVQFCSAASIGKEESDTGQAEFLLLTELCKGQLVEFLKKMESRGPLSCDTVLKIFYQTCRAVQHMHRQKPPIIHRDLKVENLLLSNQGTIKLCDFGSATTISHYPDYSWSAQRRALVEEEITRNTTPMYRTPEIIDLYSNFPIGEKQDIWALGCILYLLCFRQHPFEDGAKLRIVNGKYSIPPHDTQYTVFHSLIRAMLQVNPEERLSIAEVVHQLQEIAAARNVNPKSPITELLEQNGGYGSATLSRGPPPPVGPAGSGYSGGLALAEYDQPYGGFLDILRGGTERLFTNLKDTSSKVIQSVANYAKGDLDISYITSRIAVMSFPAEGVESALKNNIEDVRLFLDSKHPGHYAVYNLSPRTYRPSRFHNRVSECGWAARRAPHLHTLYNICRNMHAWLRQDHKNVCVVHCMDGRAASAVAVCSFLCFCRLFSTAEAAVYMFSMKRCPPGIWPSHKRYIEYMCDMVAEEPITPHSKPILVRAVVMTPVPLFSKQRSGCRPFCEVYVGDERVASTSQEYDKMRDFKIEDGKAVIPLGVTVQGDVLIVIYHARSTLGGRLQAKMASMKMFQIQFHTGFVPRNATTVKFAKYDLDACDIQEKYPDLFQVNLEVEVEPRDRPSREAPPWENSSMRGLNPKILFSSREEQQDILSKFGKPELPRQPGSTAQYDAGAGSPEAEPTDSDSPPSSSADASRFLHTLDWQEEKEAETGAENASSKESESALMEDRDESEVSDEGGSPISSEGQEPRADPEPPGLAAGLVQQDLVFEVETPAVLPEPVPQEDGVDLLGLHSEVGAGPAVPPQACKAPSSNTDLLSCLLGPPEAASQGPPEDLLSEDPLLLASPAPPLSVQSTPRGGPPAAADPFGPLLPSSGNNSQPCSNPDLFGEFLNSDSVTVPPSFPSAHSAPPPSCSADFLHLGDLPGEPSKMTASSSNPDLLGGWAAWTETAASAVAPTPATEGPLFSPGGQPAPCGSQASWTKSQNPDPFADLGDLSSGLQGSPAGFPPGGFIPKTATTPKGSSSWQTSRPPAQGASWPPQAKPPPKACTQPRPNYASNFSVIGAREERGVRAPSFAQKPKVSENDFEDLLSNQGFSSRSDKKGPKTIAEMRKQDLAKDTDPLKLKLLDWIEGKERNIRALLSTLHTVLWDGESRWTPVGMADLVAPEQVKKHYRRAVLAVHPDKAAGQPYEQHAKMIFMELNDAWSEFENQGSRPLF

[9] = target: Tyrosine-protein kinase Lyn (Homo sapiens, UniProt P07948)
Tyrosine-protein kinase Lyn, sequence (P07948 whole entry): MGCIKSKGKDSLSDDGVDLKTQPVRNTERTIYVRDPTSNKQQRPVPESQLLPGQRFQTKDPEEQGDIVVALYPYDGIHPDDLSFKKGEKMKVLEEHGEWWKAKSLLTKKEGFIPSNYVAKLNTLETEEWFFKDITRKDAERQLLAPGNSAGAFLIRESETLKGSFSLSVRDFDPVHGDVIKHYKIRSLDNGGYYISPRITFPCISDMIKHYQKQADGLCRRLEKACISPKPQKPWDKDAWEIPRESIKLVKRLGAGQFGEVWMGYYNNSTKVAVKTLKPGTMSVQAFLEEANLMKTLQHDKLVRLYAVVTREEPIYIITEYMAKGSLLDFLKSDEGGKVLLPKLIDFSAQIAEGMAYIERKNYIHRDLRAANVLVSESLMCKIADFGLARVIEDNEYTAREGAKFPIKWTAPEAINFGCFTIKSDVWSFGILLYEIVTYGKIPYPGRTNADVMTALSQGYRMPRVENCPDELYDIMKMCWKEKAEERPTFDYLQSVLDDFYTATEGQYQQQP

[10] = target: MAP/microtubule affinity-regulating kinase 3 (Homo sapiens, UniProt P27448)
[11] = target: T3, Phosphatidylinositol 5-phosphate 4-kinase type-2 alpha (Homo sapiens, UniProt P48426)
T3 sequence (P48426 whole entry): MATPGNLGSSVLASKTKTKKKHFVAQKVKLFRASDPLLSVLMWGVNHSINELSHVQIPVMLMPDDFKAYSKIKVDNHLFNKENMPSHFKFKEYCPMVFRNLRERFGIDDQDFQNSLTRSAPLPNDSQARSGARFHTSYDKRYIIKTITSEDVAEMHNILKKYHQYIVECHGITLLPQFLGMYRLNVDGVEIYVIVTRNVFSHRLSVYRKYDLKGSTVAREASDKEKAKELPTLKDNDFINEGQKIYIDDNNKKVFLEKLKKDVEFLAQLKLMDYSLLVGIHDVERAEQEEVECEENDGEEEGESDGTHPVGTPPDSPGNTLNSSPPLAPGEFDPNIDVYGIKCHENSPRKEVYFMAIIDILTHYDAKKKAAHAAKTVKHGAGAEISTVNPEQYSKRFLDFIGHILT

Cyclin-dependent kinase 12, sequence (Q9NYV4 whole entry): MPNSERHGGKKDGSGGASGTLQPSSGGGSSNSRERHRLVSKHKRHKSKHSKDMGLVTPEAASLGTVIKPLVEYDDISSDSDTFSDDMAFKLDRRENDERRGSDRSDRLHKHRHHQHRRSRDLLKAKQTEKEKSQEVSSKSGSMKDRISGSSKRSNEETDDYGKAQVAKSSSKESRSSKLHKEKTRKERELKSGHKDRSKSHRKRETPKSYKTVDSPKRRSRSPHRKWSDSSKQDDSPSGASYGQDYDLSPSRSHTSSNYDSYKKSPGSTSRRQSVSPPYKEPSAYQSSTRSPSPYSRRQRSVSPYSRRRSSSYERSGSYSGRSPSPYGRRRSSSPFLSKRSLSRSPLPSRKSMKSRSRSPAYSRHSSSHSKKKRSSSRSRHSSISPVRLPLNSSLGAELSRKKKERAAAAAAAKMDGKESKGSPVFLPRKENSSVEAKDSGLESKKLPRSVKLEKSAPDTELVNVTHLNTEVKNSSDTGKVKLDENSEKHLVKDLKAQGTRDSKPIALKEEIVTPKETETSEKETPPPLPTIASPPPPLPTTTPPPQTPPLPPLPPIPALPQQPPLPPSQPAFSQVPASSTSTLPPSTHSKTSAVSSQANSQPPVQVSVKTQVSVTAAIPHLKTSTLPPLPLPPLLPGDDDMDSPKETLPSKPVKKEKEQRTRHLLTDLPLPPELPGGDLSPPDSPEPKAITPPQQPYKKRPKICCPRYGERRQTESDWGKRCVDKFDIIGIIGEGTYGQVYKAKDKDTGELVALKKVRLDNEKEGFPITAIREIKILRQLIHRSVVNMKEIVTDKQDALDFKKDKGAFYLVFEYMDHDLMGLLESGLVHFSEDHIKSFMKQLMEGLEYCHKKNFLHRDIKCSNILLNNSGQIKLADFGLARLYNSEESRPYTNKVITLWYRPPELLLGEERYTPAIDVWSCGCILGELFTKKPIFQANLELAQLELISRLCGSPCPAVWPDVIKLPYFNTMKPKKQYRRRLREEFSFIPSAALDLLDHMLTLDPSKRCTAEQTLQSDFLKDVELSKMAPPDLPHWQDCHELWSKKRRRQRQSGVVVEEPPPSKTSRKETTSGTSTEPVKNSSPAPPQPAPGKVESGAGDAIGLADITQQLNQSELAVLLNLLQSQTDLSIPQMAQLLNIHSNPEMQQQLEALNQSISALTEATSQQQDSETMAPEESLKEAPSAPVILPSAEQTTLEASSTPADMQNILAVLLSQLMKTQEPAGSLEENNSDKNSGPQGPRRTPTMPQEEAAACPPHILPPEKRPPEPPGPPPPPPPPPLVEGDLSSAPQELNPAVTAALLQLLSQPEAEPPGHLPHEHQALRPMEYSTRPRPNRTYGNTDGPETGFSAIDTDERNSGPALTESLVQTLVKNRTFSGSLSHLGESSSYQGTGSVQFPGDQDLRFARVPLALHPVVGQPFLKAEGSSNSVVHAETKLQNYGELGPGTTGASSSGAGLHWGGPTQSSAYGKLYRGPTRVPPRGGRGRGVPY

SMILES	Kd [1]	Kd [2]	Kd [3]	Kd [4]	Kd [5]	Kd [6]	Kd [7]	Kd [8]	Kd [9]	Kd [10]	Kd [11]
O=C(Nc1c[nH]nc1-c1nc2cc(CN3CCOCC3)ccc2[nH]1)NC1CC1 [AT-9283]	> 30 µM (inactive)	> 30 µM (inactive)	3.19 µM (active)	> 30 µM (inactive)	4.11 µM (active)	> 30 µM (inactive)	–	–	–	–	–
CCn1c(C(=O)N(C2CC2)C2CC2)cc2c3c(ncn3C)c(Nc3cc(C)n(C)n3)nc21 [BMS-911543]	> 30 µM (inactive)	> 30 µM (inactive)	> 30 µM (inactive)	> 30 µM (inactive)	> 30 µM (inactive)	–	> 30 µM (inactive)	> 30 µM (inactive)	> 30 µM (inactive)	> 30 µM (inactive)	> 30 µM (inactive)
COc1c(OCCCN2CCOCC2)ccc2c1N=C(NC(=O)c1cnc(N)nc1)N1CCN=C21 [COPANLISIB]	> 30 µM (inactive)	> 30 µM (inactive)	> 30 µM (inactive)	> 30 µM (inactive)	> 30 µM (inactive)	–	> 30 µM (inactive)	> 30 µM (inactive)	> 30 µM (inactive)	> 30 µM (inactive)	> 30 µM (inactive)
CCS(=O)(=O)N1CCN(c2ccc(Nc3ncc(C(N)=O)c(NC4CC4)n3)cc2)CC1 [Cerdulatinib Hydrochloride]	> 30 µM (inactive)	> 30 µM (inactive)	> 30 µM (inactive)	> 30 µM (inactive)	13.6 µM (active)	> 30 µM (inactive)	> 30 µM (inactive)	0.552 µM (active)	> 30 µM (inactive)	–	> 30 µM (inactive)
O=C(Nc1nc2cccc(-c3ccc(CN4CCS(=O)(=O)CC4)cc3)n2n1)C1CC1 [FILGOTINIB]	> 30 µM (inactive)	> 30 µM (inactive)	> 30 µM (inactive)	> 30 µM (inactive)	> 30 µM (inactive)	–	> 30 µM (inactive)	> 30 µM (inactive)	> 30 µM (inactive)	> 30 µM (inactive)	> 30 µM (inactive)
CCn1cc(-c2ccnc3[nH]c(-c4cccc(CN(C)C)c4)cc23)c(-c2ccc(NC(=O)N(C)C)cc2)n1 [GSK-1070916]	> 30 µM (inactive)	> 30 µM (inactive)	> 30 µM (inactive)	> 30 µM (inactive)	–	> 30 µM (inactive)	–	–	> 30 µM (inactive)	–	> 30 µM (inactive)
CNC(=O)c1nn(C)c2c1C(C)(C)Cc1cnc(Nc3ccc(N4CCN(C)CC4)cc3)nc1-2 [MILCICLIB]	> 30 µM (inactive)	> 30 µM (inactive)	> 30 µM (inactive)	> 30 µM (inactive)	0.266 µM (active)	–	> 30 µM (inactive)	0.003 µM (active)	3.54 µM (active)	3.44 µM (active)	> 30 µM (inactive)
Cn1cc(-c2cnc3ccc4ccc(CS(=O)(=O)NCc5ccccn5)cc4c(=O)c3c2)cn1 [MK-8033]	> 30 µM (inactive)	> 30 µM (inactive)	> 30 µM (inactive)	> 30 µM (inactive)	> 30 µM (inactive)	–	> 30 µM (inactive)	> 30 µM (inactive)	> 30 µM (inactive)	> 30 µM (inactive)	> 30 µM (inactive)
CCCCCCCCCCCCCCCCCCOP(=O)([O-])OC1CC[N+](C)(C)CC1 [PERIFOSINE]	> 30 µM (inactive)	> 30 µM (inactive)	> 30 µM (inactive)	> 30 µM (inactive)	> 30 µM (inactive)	–	> 30 µM (inactive)	> 30 µM (inactive)	> 30 µM (inactive)	> 30 µM (inactive)	–
CCS(=O)(=O)c1cccc(-c2cc(C(=O)NC3CCN(C)CC3)c(C)c3[nH]c4ncc(C)cc4c23)c1 [TAK-901]	> 30 µM (inactive)	> 30 µM (inactive)	> 30 µM (inactive)	> 30 µM (inactive)	> 30 µM (inactive)	–	> 30 µM (inactive)	> 30 µM (inactive)	0.357 µM (active)	–	> 30 µM (inactive)
